Measurements published in ChEMBL document CHEMBL5550131, “Medicinal chemistry strategies toward broad-spectrum antiviral agents to prevent next pandemics” (Eur J Med Chem, 2024).
pEC50, pIC50: −log10 of the molar value.

Experiments:
rhinovirus B14 = experiment: Antiviral activity against human Rhinovirus 14 infected in H1-HeLa cells incubated for 3 days by crystal-violet staining based analysis; format: functional, organism-based; settings: Rhinovirus B, 72 h
Enterovirus = experiment: Antiviral activity against Enterovirus infected in human H1-HeLa cells incubated for 3 days by crystal violet staining based plaque counting analysis; format: functional, organism-based; settings: 72 h
[1] = target: Dihydroorotate dehydrogenase (quinone), mitochondrial (Homo sapiens, UniProt Q02127); experiment: Inhibition of DHOH (unknown origin)
Influenza A virus = experiment: Anti-influenza activity against Influenza A virus infected in MDCK cells assessed as reduction in virus-induced cytopathic effect incubated for 48 hrs by CCK-8 assay; format: functional, organism-based
[2] = Inhibition of Hepatitis C virus NS5B RNA dependent RNA polymerase; design: species or system Hepacivirus hominis
[3] = Inhibition of Influenza A virus RNA-dependent RNA polymerase
clinical = settings: human, in vivo, iv, 5 mg/kg
Description: Elimination half life in human at 5 mg/kg, iv

Human alphaherpesvirus 1 = experiment: Antiviral activity against HSV 1 infected in African green monkey Vero cells assessed as reduction in plaque formation incubated for 36 hrs by crystal violet staining based assay; format: functional, organism-based; settings: Human alphaherpesvirus 1, Vero
[4] = Elimination half life in human; format: ADME; settings: read-out: beta t1/2 (converted)

Chain of Dihydroorotate dehydrogenase (quinone), mitochondrial (Q02127 whole entry): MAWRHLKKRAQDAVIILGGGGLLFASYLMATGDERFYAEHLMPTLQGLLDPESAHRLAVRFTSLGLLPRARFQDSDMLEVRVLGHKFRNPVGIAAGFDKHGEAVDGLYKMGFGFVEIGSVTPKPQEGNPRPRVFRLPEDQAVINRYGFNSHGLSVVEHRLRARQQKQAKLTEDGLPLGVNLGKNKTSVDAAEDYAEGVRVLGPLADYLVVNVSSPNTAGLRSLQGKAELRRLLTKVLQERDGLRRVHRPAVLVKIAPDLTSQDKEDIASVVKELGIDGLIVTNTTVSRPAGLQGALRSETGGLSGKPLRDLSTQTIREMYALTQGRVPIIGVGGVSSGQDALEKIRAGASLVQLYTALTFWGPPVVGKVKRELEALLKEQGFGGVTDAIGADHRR

COc1ccc(OCCCCCCn2ccnc2)c(Cl)c1
pEC50 (rhinovirus B14): 5.00 | pEC50 (Enterovirus): 5.00

CN(/N=C/c1ccccc1C(=O)O)c1nc(-c2ccccc2Cl)cs1
pIC50 [1]: 8.12

O=[N+]([O-])c1ccc(CNc2ccc3ncsc3c2)cc1
pIC50 (Influenza A virus): 5.47

C[C@@]1(O)[C@H](O)[C@@H](CO)O[C@H]1n1ccc2c(N)ncnc21 [BETA-2'-C-METHYL-7-DEAZA-ADENOSINE]
pIC50 [2]: 5.30

NC(=O)c1nc(F)cn([C@@H]2O[C@H](COP(=O)(O)OP(=O)(O)OP(=O)(O)O)[C@@H](O)[C@H]2O)c1=O
pIC50 [3]: 6.47

CCC(CC)COC(=O)[C@H](C)N[P@](=O)(OC[C@H]1O[C@@](C#N)(c2ccc3c(N)ncnn23)[C@H](O)[C@@H]1O)Oc1ccccc1
half-life (clinical): 28.8 min

C=CCNC1=C2C[C@@H](C)C[C@H](OC)[C@H](O)[C@@H](C)/C=C(\C)[C@H](OC(N)=O)[C@@H](OC)/C=C/C=C(\C)C(=O)NC(=CC1=O)C2=O
pIC50 (Human alphaherpesvirus 1): 8.11

N#C[C@@]1(c2ccc3c(N)ncnn23)O[C@H](COP(=O)(O)OP(=O)(O)OP(=O)(O)O)[C@@H](O)[C@H]1O [RDV-TP]
half-life [4]: 1600 min
